pEC50: −log10 of the molar value.
What was measured:
POR = molecular target: T1, POR (Homo sapiens, UniProt P16435); experiment: TPP-CCR in living HL-60 cells; format: cell-based
T1 construct: endogenous in cells; host or cells: HL-60 (ATCC CCL-240)
T1 sequence (P16435 1-677): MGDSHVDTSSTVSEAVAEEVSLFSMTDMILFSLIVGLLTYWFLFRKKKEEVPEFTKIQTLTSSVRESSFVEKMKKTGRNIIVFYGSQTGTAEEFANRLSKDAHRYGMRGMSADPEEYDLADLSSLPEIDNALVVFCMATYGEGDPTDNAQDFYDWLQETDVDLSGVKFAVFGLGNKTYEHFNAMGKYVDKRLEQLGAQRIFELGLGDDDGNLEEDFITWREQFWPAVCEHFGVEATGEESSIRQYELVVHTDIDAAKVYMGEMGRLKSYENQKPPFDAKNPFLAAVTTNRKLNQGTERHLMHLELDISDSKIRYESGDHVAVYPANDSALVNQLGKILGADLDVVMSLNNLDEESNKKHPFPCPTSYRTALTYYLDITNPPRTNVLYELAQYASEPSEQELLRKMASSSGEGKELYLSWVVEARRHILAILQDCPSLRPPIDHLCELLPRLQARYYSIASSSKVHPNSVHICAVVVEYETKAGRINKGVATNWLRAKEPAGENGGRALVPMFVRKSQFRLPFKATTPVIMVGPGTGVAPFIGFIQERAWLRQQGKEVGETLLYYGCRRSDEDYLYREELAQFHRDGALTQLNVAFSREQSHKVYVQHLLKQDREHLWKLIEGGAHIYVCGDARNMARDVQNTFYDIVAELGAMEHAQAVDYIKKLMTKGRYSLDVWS
Source text: (§1) Therefore, we performed TPP with compound concentration range (TPP-CCR) experiments according to published procedures. In brief, after preparing tryptic peptides from the non-denatured protein fractions (used for immunoblotting in the previous sections) applying the SP3 method, the peptides were labeled using TMT10plex, coding for inhibitor concentration, and the samples belonging to a TMT set were combined, offline high-pH fractionated, and analyzed by MS.
(§2) HL-60 cells were expanded as described above for CETSA and TPP-TR to 1.25 million cells per milliliter. […] A number of 2.5 million cells in 2 mL of medium were added to each tube and incubated (1 h, 37 °C). After centrifugation (300 rcf, 3 min, r.t.) and removing all of the supernating culture medium, the cells were washed once with 2 mL and once with 0.5 mL PBS (r.t.) by gently resuspending the cells, followed by centrifugation (300 rcf, 3 min, r.t.) and the complete removal of the supernatants.
(§3) After transferring the cells from the 2 mL Eppendorf tubes into correspondingly labeled PCR tubes (tube strips) using 100 µL of ice-cold PBS supplemented with protease inhibitors for resuspending the cells, the samples were further processed as described above for CETSA and TPP-TR, however, by applying a single treatment temperature of 51 °C.
(§4) For each sample set comprising ten compound concentration range samples, a same volume of the cell extracts containing the fraction of soluble, non-denatured proteins, corresponding to an average of 5 µg total protein, was used for further analysis. The calculated volume was respectively transferred into PCR tubes of a tube strip and supplemented with SDS sample buffer without DTT and bromophenol blue (final concentrations: 7.5% glycerol, 3% SDS, 37.5 mM Tris/HCl pH 7.0) and ddH2O to a final volume of 10 µL, respectively. Reduction and alkylation were performed by addition of 2.5 µL 100 mM dithiothreitol (DTT; incubation: 20 min, 56 °C, 1000 rpm in an Eppendorf ThermoMixer C, covering the tubes with aluminum foil to minimize condensation in the lids) and 3.33 µL 300 mM iodoacetamide (IAA; incubation: 15 min, r.t., in the dark without shaking), as well as 2.5 µL 100 mM DTT (incubation: 15 min, r.t., without shaking; quenching of excess of IAA). […] The beads were collected and washed (3× 200 µL 80% ethanol p.a. in HPLC-MS grade water, 1 × 200 µL acetonitrile (ACN; HPLC gradient grade)) using a device for handling of magnetic particles [patent US20100200405A1]. The ACN of the last washing step was completely removed by aspiration without letting the beads dry out.
(§5) Tryptic digest was performed on-bead by resuspending (use of an ultrasound bath may be required) the beads in 20 µL 50 mM TEAB in HPLC-MS grade water containing 0.1 µg Trypsin/Lys-C mix and 16.5 h incubation at 37 °C and 1000 rpm (Eppendorf ThermoMixer C, covering the tubes with aluminum foil to minimize condensation in the lids). Tryptic fragmentation of proteins was optimized by addition of another 0.1 µg of Trypsin/Lys-C mix in 2 µL 50 mM TEAB and 4 h incubation at 37 °C and 1000 rpm. After centrifugation for about 1 min in a table top centrifuge and magnetic concentration and retention of the beads at the inner tube wall, the supernatants containing the peptides were transferred into new PCR tubes (of tube strips) and were stored at −80 °C. The beads were discarded.
(§6) Half of the peptide samples (11 µL containing about 2.5 µg peptides) were transferred into new PCR tubes (of tube strips) and allowed to equilibrate to r.t. TMT labeling reagents were reconstituted as described for the TPP-TR samples, and 1 µL each was added to the reconstituted peptides according to the following scheme and homogenized immediately by aspiration and dispensing:
(§7) Peptide separation was performed as described above for the analysis of TPP-TR samples. […]

UNC119B = molecular target: T2, UNC119B (Homo sapiens, UniProt A6NIH7); experiment: TPP-CCR in living HL-60 cells; format: cell-based
T2 construct: endogenous in cells; host or cells: HL-60 (ATCC CCL-240)
Source text: as §1, §2, §3, §4, §5, §6, §7

[1] = living HL-60 cells, […] °C, TMT-MS

T2 sequence (A6NIH7 whole entry): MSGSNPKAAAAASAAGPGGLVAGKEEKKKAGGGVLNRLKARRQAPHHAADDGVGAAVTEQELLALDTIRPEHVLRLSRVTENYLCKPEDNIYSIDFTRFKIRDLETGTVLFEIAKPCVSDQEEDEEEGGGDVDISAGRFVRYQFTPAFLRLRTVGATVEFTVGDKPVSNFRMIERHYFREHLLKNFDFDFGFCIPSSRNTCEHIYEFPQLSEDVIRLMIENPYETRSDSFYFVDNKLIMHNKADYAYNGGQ

Cc1cnc(Nc2ccc(F)cc2Cl)nc1-c1c[nH]c(C(=O)N[C@H](CO)c2cccc(Cl)c2)c1 [ERK 11e]
Hill slope (POR; TPP-CCR, living cells, POR): 0.73 | pEC50 (POR; [1]): 5.89 | Hill slope (POR) (POR; [1]): 0.73 | Hill slope (UNC119B; TPP-CCR, living cells, UNC119B): 0.67 | Hill slope (UNC119B) (UNC119B; [1]): 0.67 | EC50 (UNC119B; living HL-60 cells, […] °C, TMT-MS, read-out: pEC50 (UNC119B) (converted)): 1.05 µM
